Laboratory results: the supplement of paper PMC13380429
Counter-ions that a name gives are not always drawn.

Experiments:
Settings in all cases: 72 h
Caco-2 [1] = test: cell viability relative to DMSO; higher = less toxic
Calu-3 [2] = test: as above
U2OS [3] = test: as above
Vero E6 [4] = test: as above
Caco-2 [5] = test: relative viability EC50 (midpoint between 100% and the lowest measured viability); higher = less toxic
Calu-3 [6] = test: as above
U2OS [7] = test: as above
Vero E6 [8] = test: as above
Caco-2 [9] = test: drug sensitivity score (DSS) for viability; higher = more toxic; extreme values may be limits of the assay
Calu-3 [10] = test: as above
U2OS [11] = test: as above
Vero E6 [12] = test: as above
HepG2 [13] = test: cell viability relative to DMSO; higher = less toxic
HepG2 [14] = test: relative viability EC50 (midpoint between 100% and the lowest measured viability); higher = less toxic
HepG2 [15] = test: drug sensitivity score (DSS) for viability; higher = more toxic; extreme values may be limits of the assay

Row | Structure (SMILES) | cell viability (Caco-2 [1]; 1 nM) [%] | cell viability (Caco-2 [1]; 10 nM) [%] | cell viability (Caco-2 [1]; 100 nM) [%] | cell viability (Caco-2 [1]; 1000 nM) [%] | cell viability (Caco-2 [1]; 10000 nM) [%] | cell viability (Calu-3 [2]; 1 nM) [%] | cell viability (Calu-3 [2]; 10 nM) [%] | cell viability (Calu-3 [2]; 100 nM) [%] | cell viability (Calu-3 [2]; 1000 nM) [%] | cell viability (Calu-3 [2]; 10000 nM) [%] | cell viability (U2OS [3]; 1 nM) [%] | cell viability (U2OS [3]; 10 nM) [%] | cell viability (U2OS [3]; 100 nM) [%] | cell viability (U2OS [3]; 1000 nM) [%] | cell viability (U2OS [3]; 10000 nM) [%] | cell viability (Vero E6 [4]; 1 nM) [%] | cell viability (Vero E6 [4]; 10 nM) [%] | cell viability (Vero E6 [4]; 100 nM) [%] | cell viability (Vero E6 [4]; 1000 nM) [%] | cell viability (Vero E6 [4]; 10000 nM) [%] | relative viability EC50 (Caco-2 [5]) [µM] | relative viability EC50 (Calu-3 [6]) [µM] | relative viability EC50 (U2OS [7]) [µM] | relative viability EC50 (Vero E6 [8]) [µM] | drug sensitivity score (Caco-2 [9]) | drug sensitivity score (Calu-3 [10]) | drug sensitivity score (U2OS [11]) | drug sensitivity score (Vero E6 [12]) | cell viability (HepG2 [13]; 1 nM) [%] | cell viability (HepG2 [13]; 10 nM) [%] | cell viability (HepG2 [13]; 100 nM) [%] | cell viability (HepG2 [13]; 1000 nM) [%] | cell viability (HepG2 [13]; 10000 nM) [%] | relative viability EC50 (HepG2 [14]) [µM] | drug sensitivity score (HepG2 [15])
1 | COc1ccc(Cc2nc(O)c3c(C)nc([C@@H](CCCc4ccccc4)[C@@H](C)O)n3n2)cc1OC [BAY-60-7550] | 95.7 | 101 | 95.5 | 92.4 | 93.1 | 103 | 100 | 118 | 96.6 | 101 | 101 | 106 | 101 | 103 | 94.6 | 103 | 105 | 98.5 | 98.1 | 95.2 | > 10 | > 10 | > 10 | > 10 | 0 | 0 | 0 | 0 |  |  |  |  |  |  | 
2 | O=C(CN1C(=O)C2(CCCC2)NC[C@H]1c1cc(F)cc(F)c1)Nc1ccc2c(c1)C[C@@]1(C2)C(=O)Nc2ncccc21 [MK-3207] | 99 | 101 | 93 | 106 | 88.8 | 96.6 | 92.9 | 98.2 | 93.4 | 109 | 104 | 101 | 102 | 96.8 | 101 |  |  |  |  |  | > 10 | > 10 | > 10 |  | 0 | 0 | 0 |  | 91.2 | 106 | 101 | 113 | 101 | > 10 | 0
3 | O=c1cc(N2CCN(c3cccc(C(F)(F)F)c3)CC2)[nH]c(=O)n1C1CCCCC1 [ML179] | 95.5 | 96.8 | 97.2 | 98 | 96.5 |  |  |  |  |  | 101 | 97.5 | 100 | 97.9 | 101 | 102 | 101 | 98.4 | 100 | 99.7 | > 10 |  | > 10 | > 10 | 0 |  | 0 | 0 | 100 | 105 | 94.4 | 82.6 | 77.7 | > 10 | 2.7
4 | O=C1C(Cl)=C(N2CCOCC2)C(=O)N1c1ccc(Cl)c(Cl)c1 [RI-1] | 97.2 | 94.9 | 93.2 | 106 | 110 |  |  |  |  |  | 89.2 | 97.2 | 96.8 | 96.7 | 101 | 102 | 95.5 | 97.7 | 97.1 | 107 | > 10 |  | > 10 | > 10 | 0 |  | 0 | 0 | 98.9 | 107 | 103 | 97.3 | 98.6 | > 10 | 0
5 | [O-][S+](c1ccccc1)c1ccc2nnnn2n1 (stereo unspecified) [Ro-106-9920] | 89.7 | 92.3 | 92.1 | 95.4 | 39.5 | 96.3 | 94.9 | 105 | 98.8 | 63.7 | 99.9 | 103 | 95 | 95.9 | 2.5 | 97.7 | 95.6 | 95.9 | 90.5 | 12.1 | 2.54 |  | 2.84 | 2.28 | 4 | 1.9 | 6 | 6.4 | 106 | 102 | 110 | 98.1 | 1.1 | 3.03 | 5.8
6 | FC(F)(F)c1ccccc1-n1ccnc1 [TRIM] | 106 | 104 | 98.6 | 93.5 | 108 | 98.7 | 99.5 | 92.6 | 97 | 97.2 | 99.6 | 97.8 | 103 | 95.7 | 103 |  |  |  |  |  | > 10 | > 10 | > 10 |  | 0 | 0 | 0 |  | 96.7 | 110 | 108 | 103 | 89.5 | > 10 | 0
7 | Cc1cn(C[C@H](N)C(=O)O)c(=O)n(Cc2ccsc2C(=O)O)c1=O [UBP-310] | 99.7 | 93.6 | 101 | 93 | 99.5 |  |  |  |  |  | 98.8 | 97.3 | 98.5 | 97 | 98.5 | 97.3 | 101 | 98.3 | 97.6 | 97.3 | > 10 |  | > 10 | > 10 | 0 |  | 0 | 0 | 96.6 | 91.3 | 94.6 | 91.2 | 88.1 | > 10 | 0
8 | CN[C@H](CC(C)C)C(=O)N[C@H]1C(=O)N[C@@H](CC(N)=O)C(=O)N[C@H]2C(=O)N[C@H]3C(=O)N[C@H](C(=O)N[C@H](C(=O)O)c4cc(O)cc(O)c4-c4cc3ccc4O)[C@H](O)c3ccc(c(Cl)c3)Oc3cc2cc(c3O[C@@H]2O[C@H](CO)[C@@H](O)[C@H](O)[C@H]2O[C@H]2C[C@](C)(N)[C@H](O)[C@H](C)O2)Oc2ccc(cc2Cl)[C@H]1O [VANCOMYCIN HYDROCHLORIDE] | 80.7 | 92.2 | 94.9 | 99.8 | 100 |  |  |  |  |  | 99.7 | 95.6 | 97.4 | 101 | 106 | 98.1 | 99.5 | 98.3 | 98.5 | 104 | > 10 |  | > 10 | > 10 | 0 |  | 0 | 0 | 93.7 | 105 | 105 | 96.4 | 125 | > 10 | 0
9 | CCCCCCc1ccc(O)cc1O.Nc1c2ccccc2nc2ccccc12 [acrisorcin] | 99.5 | 103 | 96.6 | 96.7 | 47.4 | 99.1 | 88.3 | 101 | 96.4 | 60.7 | 100 | 101 | 100 | 96.1 | 27.9 | 105 | 102 | 102 | 91.7 | 0.3 | 2.66 |  | 2.75 | 2.49 | 3.3 | 2.5 | 4.5 | 6.8 | 103 | 106 | 95.3 | 77.9 | 0.3 | 1.65 | 9
10 | O=C(O)/C=C/c1ccc(-c2ccc(O)c(C34CC5CC(CC(C5)C3)C4)c2)cc1 [adarotene] | 87.5 | 96.7 | 96.8 | 38 | 35.3 | 96.9 | 103 | 98.4 | 56.5 | 24.4 | 93.9 | 98.5 | 101 | 14.5 | 11.8 | 94 | 104 | 102 | 53.4 | 54.4 | 0.306 | 0.854 | 0.347 |  | 12 | 9.4 | 15.5 | 8.3 | 97.9 | 94.6 | 95.7 | 29.1 | 27.1 | 0.285 | 13.7
11 | CC(C)[C@H](CO)Nc1nc(Nc2cc(N)cc(Cl)c2)c2ncn(C(C)C)c2n1 [aminopurvalanol-a] | 101 | 97 | 98.5 | 100 | 38.2 | 98.4 | 87.7 | 101 | 99.3 | 47 | 94 | 99.7 | 101 | 96.5 | 34 | 99.7 | 102 | 96.9 | 95.3 | 53.3 | 3.2 | 3.07 | 2.75 |  | 3.3 | 2.9 | 4.1 | 3.2 | 101 | 99.3 | 93.8 | 105 | 34.6 | 3.54 | 3.2
12 | O=C(/C=C/c1ccccc1)NCCO [brolitene] | 102 | 103 | 95 | 93.5 | 95 |  |  |  |  |  | 107 | 109 | 102 | 104 | 99.2 | 104 | 103 | 99.4 | 104 | 100 | > 10 |  | > 10 | > 10 | 0 |  | 0 | 0 | 107 | 104 | 99.3 | 98 | 102 | > 10 | 0
13 | CC(CCc1ccccc1)NC(C)C(O)c1ccc(O)cc1 (stereo unspecified) [buphenine] | 90.4 | 102 | 92.2 | 92.5 | 90 | 108 | 106 | 99.3 | 104 | 110 | 101 | 100 | 100 | 94.6 | 99.1 |  |  |  |  |  | > 10 | > 10 | > 10 |  | 0 | 0 | 0 |  | 98.8 | 100 | 95.9 | 89.7 | 91.3 | > 10 | 0.1
14 | O=C(O)c1cn(C2CC2)c2cc(N3CCNCC3)c(F)cc2c1=O [ciprofloxacin] | 112 | 100 | 108 | 112 | 79.1 |  |  |  |  |  | 100 | 97.8 | 98 | 96.4 | 103 | 102 | 97.8 | 102 | 91.8 | 97.1 | > 10 |  | > 10 | > 10 | 0.4 |  | 0 | 0 | 106 | 104 | 114 | 78.1 | 99.8 | > 10 | 0
